Data from patent US20110306541A1, “METHODS FOR TREATING HCV” (priority 2010, published 2011).
Blank lines part the entries; values can stand above or below the molecule they belong to.

Tests used:
HCV 1b replicon = experiment: Renilla luciferase (RLuc)-based HCV replicon reporter assay - HCV 1b RLuc; assay type: cell-based; settings: Hepatitis C virus; Table I; HCV 1b RLuc replicon
[1] = Drug-drug interaction on co-administration; assay type: in vivo
[2] = Bilirubin elevations related to dose of Compound 3; assay type: in vivo, human; settings: doses above 400 mg
[3] = Exposure (AUC) corresponding to dose; assay type: in vivo, human; settings: for AUC: human, in vivo

SMILES: COC(=O)N[C@H](C(=O)N1CCC[C@H]1c1ncc(-c2ccc3cc4cc(-c5cnc([C@@H]6CCCN6C(=O)[C@@H](NC(=O)OC)C(C)C)[nH]5)ccc4cc3c2)[nH]1)C(C)C
EC50 (HCV 1b replicon): 7 pM

SMILES: COC(=O)N[C@H](C(=O)N1CCC[C@H]1c1nc(C#Cc2ccc3cc(-c4cnc([C@@H]5CC(F)(F)CN5C(=O)[C@@H](NC(=O)OC)C(C)C)[nH]4)ccc3c2)c[nH]1)C(C)C
EC50 (HCV 1b replicon): 14.7 pM

increase of the exposure of Compound 1 ([1]; co-administered with Compound 2): 2-3 ×
SMILES: Fc1ccccc1-c1nc2ccn(Cc3ccc(-c4ccc(C(F)(F)F)cc4C(F)(F)F)nn3)cc-2n1 [Compound 1, 5-((6-(2,4-bis(trifluoromethyl)phenyl)pyridazin-3-yl)methyl)-2-(2-fluorophenyl)-5H-imidazo[4,5-c]pyridine]
effect on drug metabolizing systems ([1]; in vivo): it does not appear that Compound 1 affects drug metabolizing systems

bilirubin elevations [2]: more bilirubin elevations in some cases
AUC ([3]; 10 mg dose): 0.272 µg·h/mL
AUC ([3]; 1000 mg dose): 48.4 µg·h/mL
SMILES: CC[C@@H]1C[C@]1(NC(=O)[C@@H]1C[C@@H](Oc2cc(-c3csc(NC(C)C)n3)nc3c(Cl)c(OCCN4CCOCC4)ccc23)CN1C(=O)[C@@H](NC(=O)O[C@@H]1C[C@@H]2C[C@@H]2C1)C(C)(C)C)C(=O)O [Compound 3]

exposure ([3]; 3 mg dose): 0.0323 µg·h/mL
exposure ([3]; 30 mg dose): 1.4152 µg·h/mL
exposure ([3]; 90 mg dose): 4.1379 µg·h/mL
exposure ([3]; 100 mg dose): 11.1666 µg·h/mL
exposure ([3]; 300 mg dose): 38.9 µg·h/mL
SMILES: COC(=O)NC(C(=O)N1CC2(CC2)CC1c1ncc(-c2ccc3c(c2)C(F)(F)c2cc(-c4ccc5nc(C6C7CCC(C7)N6C(=O)C(NC(=O)OC)C(C)C)[nH]c5c4)ccc2-3)[nH]1)C(C)C (stereo not drawn) [Compound 16, (1-{3-[6-(9,9-Difluoro-7-{2-[5-(2-methoxycarbonylamino-3-methyl-butyryl)-5-aza-spiro[2.4]hept-6-yl]-3H-imidazol-4-yl}-9H-fluoren-2-yl)-1H-benzoimidazol-2-yl]-2-aza-bicyclo[2.2.1]heptane-2-carbonyl}-2-methyl-propyl)-carbamic acid methyl ester]

SMILES: COC(=O)N[C@H](C(=O)N1CCC[C@H]1c1ncc(C#CC2=CC3SC(c4cnc([C@@H]5CCCN5C(=O)[C@@H](NC(=O)OC)C(C)C)[nH]4)=CC3S2)[nH]1)C(C)C (stereo partly drawn)
EC50 (HCV 1b replicon): 50.3 pM

SMILES: COC(=O)N[C@H](C(=O)N1CCC[C@H]1c1ncc(-c2ccc3cc(-c4ccc(-c5cnc([C@@H]6CCCN6C(=O)[C@H](NC(=O)OC)c6ccccc6)[nH]5)cc4)ccc3c2)[nH]1)C(C)C
EC50 (HCV 1b replicon): 8.1 pM

SMILES: COC(=O)N[C@H](C(=O)N1CCC[C@H]1c1ncc(-c2cc3cc4sc(-c5cnc([C@@H]6CCCN6C(=O)[C@@H](NC(=O)OC)C(C)C)[nH]5)cc4cc3s2)[nH]1)C(C)C
EC50 (HCV 1b replicon): 7.7 pM
